How the values were obtained:
NR1/NR2B [1] = molecular target: NR1/NR2B (Homo sapiens (Human), UniProt Q13224); experiment: Cell assay: FDSS Ca2+ influx inhibition in HEK293 cells expressing NR1/NR2B; details: read-out: NR2B NAM IC50; HEK293 cells expressing NR1/NR2B, Ca2+ influx;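 note: Fluo-8 Ca2+ signal read on Hamamatsu FDSS 6000 after glutamate, glycine and Ca2+ challenge following 10 min compound preincubation, end/baseline fluorescence ratio compared with MK801 control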
NR1/NR2B [2] = molecular target: NR1/NR2B (Homo sapiens (Human), UniProt Q05586+Q13224); experiment: as above; details: Binned Activity, HEK293 cells expressing NR1/NR2B, Ca2+ influx; binned NR2B NAM IC50
Sequence of NR1/NR2B (Homo sapiens (Human), UniProt Q05586+Q13224) (Q13224 27-1484, other chains not shown): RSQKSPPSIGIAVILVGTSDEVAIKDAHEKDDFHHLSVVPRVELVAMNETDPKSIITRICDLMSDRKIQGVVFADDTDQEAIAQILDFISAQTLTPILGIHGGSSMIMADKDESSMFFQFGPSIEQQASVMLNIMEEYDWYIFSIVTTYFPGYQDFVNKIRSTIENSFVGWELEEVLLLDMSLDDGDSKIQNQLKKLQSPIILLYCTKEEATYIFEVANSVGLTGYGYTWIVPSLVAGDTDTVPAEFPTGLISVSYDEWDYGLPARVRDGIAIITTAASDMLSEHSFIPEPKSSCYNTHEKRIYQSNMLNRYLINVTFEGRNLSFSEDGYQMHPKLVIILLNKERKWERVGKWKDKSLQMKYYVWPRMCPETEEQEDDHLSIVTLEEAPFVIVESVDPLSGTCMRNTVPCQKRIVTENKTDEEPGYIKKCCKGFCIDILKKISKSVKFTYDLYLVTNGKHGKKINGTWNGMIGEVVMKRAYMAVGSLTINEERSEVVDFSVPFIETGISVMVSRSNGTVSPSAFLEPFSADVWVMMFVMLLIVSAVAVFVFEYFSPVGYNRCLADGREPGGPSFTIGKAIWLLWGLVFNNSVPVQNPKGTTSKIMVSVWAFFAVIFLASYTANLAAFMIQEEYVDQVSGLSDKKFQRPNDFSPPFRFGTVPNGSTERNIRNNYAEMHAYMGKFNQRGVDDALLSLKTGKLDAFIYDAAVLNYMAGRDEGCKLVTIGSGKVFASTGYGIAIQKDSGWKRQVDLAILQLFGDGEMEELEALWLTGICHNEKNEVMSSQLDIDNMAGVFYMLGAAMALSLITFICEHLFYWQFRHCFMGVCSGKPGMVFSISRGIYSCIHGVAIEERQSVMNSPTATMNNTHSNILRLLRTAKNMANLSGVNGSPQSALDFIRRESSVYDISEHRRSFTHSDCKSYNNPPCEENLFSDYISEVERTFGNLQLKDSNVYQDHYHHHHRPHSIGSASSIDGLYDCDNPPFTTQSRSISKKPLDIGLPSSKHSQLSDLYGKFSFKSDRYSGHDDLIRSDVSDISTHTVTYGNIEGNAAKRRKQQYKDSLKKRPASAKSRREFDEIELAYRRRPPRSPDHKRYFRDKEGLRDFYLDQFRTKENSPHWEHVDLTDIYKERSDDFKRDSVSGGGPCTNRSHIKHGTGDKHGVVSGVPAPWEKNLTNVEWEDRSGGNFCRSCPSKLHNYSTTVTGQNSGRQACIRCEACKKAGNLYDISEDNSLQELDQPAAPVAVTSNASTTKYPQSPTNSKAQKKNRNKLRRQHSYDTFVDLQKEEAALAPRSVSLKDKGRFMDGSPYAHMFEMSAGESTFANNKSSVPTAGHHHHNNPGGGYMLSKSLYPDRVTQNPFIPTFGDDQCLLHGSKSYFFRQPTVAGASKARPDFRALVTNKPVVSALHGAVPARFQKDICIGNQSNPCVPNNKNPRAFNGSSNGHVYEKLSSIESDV

Sequence of NR1/NR2B (Homo sapiens (Human), UniProt Q13224) (Q13224 27-1484, other chains not shown): as above

SMILES: O=C(CN1C[C@H]2C[C@H](Cc3ccccc3)C[C@H]2C1)c1ccc(O)c(F)c1 [Example 308, 2-[(3aR,5R,6aS)-5-benzyl-octahydrocyclopenta[c]pyrrol-2-yl]-1-(3-fluoro-4-hydroxyphenyl) ethan-1-one]
- IC50 (NR1/NR2B [1]): 52.2 nM
- IC50 (NR1/NR2B [2]): < 100 nM

SMILES: O=C(CN1C[C@@H]2C[C@@](O)(Cc3ccccc3)C[C@@H]2C1)c1ccc(O)nc1 [Example 178, 2-[(3aR,5R,6aS)-5-benzyl-5-hydroxy-octahydrocyclopenta[c]pyrrol-2-yl]-1-(6-hydroxypyridin-3-yl)ethan-1-one]
- IC50 (NR1/NR2B [1]): 10000 nM
- IC50 (NR1/NR2B [2]): > 10000 nM

SMILES: Cc1cc(F)ccc1C[C@]1(O)C[C@H]2CN(CC(=O)c3ccc(O)cc3)C[C@H]2C1 [Example 250, 2-((3aR,5r,6aS)-5-(4-fluoro-2-methylbenzyl)-5-hydroxyhexahydrocyclo-penta[c]pyrrol-2(1H)-yl)-1-(4-hydroxyphenyl)ethanone]
- IC50 (NR1/NR2B [1]): 137 nM
- IC50 (NR1/NR2B [2]): 100 to 1000 nM

SMILES: O=C(CN1C[C@@H]2C[C@@](O)(Cc3ccc(F)cc3)C[C@@H]2C1)c1ccc(O)c(F)c1 [Example 169, 1-(3-fluoro-4-hydroxyphenyl)-2-((3aR,5r,6aS)-5-(4-fluorobenzyl)-5-hydroxyhexahydrocyclo-penta[c]pyrrol-2(1H)-yl)ethanone]
- IC50 (NR1/NR2B [1]): 117 nM
- IC50 (NR1/NR2B [2]): 100 to 1000 nM

SMILES: O=C(CN1C[C@@H]2C[C@@](O)(Cc3cccs3)C[C@@H]2C1)c1ccc(O)c(F)c1 [Example 220, 1-(3-fluoro-4-hydroxyphenyl)-2-(5-hydroxy-5-(thiophen-2-ylmethyl)hexahydro-cyclopenta[c]pyrrol-2(1H)-yl)ethanone]
- IC50 (NR1/NR2B [1]): 111 nM
- IC50 (NR1/NR2B [2]): 100 to 1000 nM

SMILES: O=C(Nc1cccnc1)N1C[C@H]2C[C@@H](c3ccccc3)C[C@H]2C1 [Example 111, 5-phenyl-N-(pyridin-3-yl)-octahydrocyclopenta[c] pyrrole-2-carboxamide]
- IC50 (NR1/NR2B [1]): 10000 nM
- IC50 (NR1/NR2B [2]): > 10000 nM

SMILES: O=C(CN1C[C@H]2C[C@@H](CCc3ccccc3)C[C@H]2C1)c1ccc(O)cc1 [Example 324, 1-(4-hydroxyphenyl)-2-((3aR,5r,6aS)-5-phenethylhexa-hydrocyclo-penta[c]pyrrol-2(1H)-yl)ethanone]
- IC50 (NR1/NR2B [1]): 215 nM
- IC50 (NR1/NR2B [2]): 100 to 1000 nM

SMILES: O=C(CN1C[C@@H]2CC(O)(CCc3ccccc3)C[C@@H]2C1)c1ccc(-c2cccc(F)c2)cc1 (stereo partly drawn) [Example 270, 1-[4-(3-fluorophenyl)phenyl]-2-[5-hydroxy-5-(2-phenylethyl)-octahydrocyclopenta[c]pyrrol-2-yl]ethan-1-one]
- IC50 (NR1/NR2B [1]): 10000 nM
- IC50 (NR1/NR2B [2]): > 10000 nM

SMILES: C[C@@H](NC(=O)N1C[C@H]2C[C@@H](c3ccccc3)C[C@H]2C1)c1ccc(Cl)cc1 [Example 113, N-[(1R)-1-(4-chlorophenyl)ethyl]-5-phenyl-octahydrocyclopenta[c] pyrrole-2-carboxamide]
- IC50 (NR1/NR2B [1]): 10000 nM
- IC50 (NR1/NR2B [2]): > 10000 nM

SMILES: COc1ccc(-c2ccc(C(=O)CN3C[C@@H]4C[C@@](O)(Cc5ccccc5)C[C@@H]4C3)cc2)cc1 [Example 259, 2-((3aR,5r,6aS)-5-benzyl-5-hydroxyhexahydrocyclo-penta[c]pyrrol-2(1H)-yl)-1-(4′-methoxy-[1,1′-biphenyl]-4-yl)ethanone]
- IC50 (NR1/NR2B [1]): 10000 nM
- IC50 (NR1/NR2B [2]): > 10000 nM

SMILES: O=C(CN1C[C@@H]2C[C@](F)(Cc3ccccc3)C[C@@H]2C1)c1ccc(O)cc1 [Example 310, 2-((3aR,5s,6aS)-5-benzyl-5-fluorohexahydrocyclo-penta[c]pyrrol-2(1H)-yl)-1-(4-hydroxyphenyl)ethanone]
- IC50 (NR1/NR2B [1]): 175 nM
- IC50 (NR1/NR2B [2]): 100 to 1000 nM

SMILES: O=C(CN1C[C@@H]2CN(Cc3ccccc3)C[C@@H]2C1)c1ccc(O)cc1 [Example 326, 2-(5-benzylhexahydropyrrolo [3,4-c]pyrrol-2(1H)-yl)-1-(4-hydroxy-phenyl)ethanone]
- IC50 (NR1/NR2B [1]): 682 nM
- IC50 (NR1/NR2B [2]): 100 to 1000 nM
